In the data set the target is human NaV1.5 (Homo sapiens, UniProt Q14524). Kind of data set: IonWorks Quattro (IWQ) electrophysiology, human NaV1.5. Type of data set: cell-based. A general note: The patch-clamp technique gives a direct electrical read-out from membranes.
Setting [1] is: human, read-out: Ala mutant IWQ IC50 NaV1.5.

Each structure is given as a SMILES string. Where two headings read alike, the source gives them in different places.

Chain of human NaV1.5 (Q14524 whole entry): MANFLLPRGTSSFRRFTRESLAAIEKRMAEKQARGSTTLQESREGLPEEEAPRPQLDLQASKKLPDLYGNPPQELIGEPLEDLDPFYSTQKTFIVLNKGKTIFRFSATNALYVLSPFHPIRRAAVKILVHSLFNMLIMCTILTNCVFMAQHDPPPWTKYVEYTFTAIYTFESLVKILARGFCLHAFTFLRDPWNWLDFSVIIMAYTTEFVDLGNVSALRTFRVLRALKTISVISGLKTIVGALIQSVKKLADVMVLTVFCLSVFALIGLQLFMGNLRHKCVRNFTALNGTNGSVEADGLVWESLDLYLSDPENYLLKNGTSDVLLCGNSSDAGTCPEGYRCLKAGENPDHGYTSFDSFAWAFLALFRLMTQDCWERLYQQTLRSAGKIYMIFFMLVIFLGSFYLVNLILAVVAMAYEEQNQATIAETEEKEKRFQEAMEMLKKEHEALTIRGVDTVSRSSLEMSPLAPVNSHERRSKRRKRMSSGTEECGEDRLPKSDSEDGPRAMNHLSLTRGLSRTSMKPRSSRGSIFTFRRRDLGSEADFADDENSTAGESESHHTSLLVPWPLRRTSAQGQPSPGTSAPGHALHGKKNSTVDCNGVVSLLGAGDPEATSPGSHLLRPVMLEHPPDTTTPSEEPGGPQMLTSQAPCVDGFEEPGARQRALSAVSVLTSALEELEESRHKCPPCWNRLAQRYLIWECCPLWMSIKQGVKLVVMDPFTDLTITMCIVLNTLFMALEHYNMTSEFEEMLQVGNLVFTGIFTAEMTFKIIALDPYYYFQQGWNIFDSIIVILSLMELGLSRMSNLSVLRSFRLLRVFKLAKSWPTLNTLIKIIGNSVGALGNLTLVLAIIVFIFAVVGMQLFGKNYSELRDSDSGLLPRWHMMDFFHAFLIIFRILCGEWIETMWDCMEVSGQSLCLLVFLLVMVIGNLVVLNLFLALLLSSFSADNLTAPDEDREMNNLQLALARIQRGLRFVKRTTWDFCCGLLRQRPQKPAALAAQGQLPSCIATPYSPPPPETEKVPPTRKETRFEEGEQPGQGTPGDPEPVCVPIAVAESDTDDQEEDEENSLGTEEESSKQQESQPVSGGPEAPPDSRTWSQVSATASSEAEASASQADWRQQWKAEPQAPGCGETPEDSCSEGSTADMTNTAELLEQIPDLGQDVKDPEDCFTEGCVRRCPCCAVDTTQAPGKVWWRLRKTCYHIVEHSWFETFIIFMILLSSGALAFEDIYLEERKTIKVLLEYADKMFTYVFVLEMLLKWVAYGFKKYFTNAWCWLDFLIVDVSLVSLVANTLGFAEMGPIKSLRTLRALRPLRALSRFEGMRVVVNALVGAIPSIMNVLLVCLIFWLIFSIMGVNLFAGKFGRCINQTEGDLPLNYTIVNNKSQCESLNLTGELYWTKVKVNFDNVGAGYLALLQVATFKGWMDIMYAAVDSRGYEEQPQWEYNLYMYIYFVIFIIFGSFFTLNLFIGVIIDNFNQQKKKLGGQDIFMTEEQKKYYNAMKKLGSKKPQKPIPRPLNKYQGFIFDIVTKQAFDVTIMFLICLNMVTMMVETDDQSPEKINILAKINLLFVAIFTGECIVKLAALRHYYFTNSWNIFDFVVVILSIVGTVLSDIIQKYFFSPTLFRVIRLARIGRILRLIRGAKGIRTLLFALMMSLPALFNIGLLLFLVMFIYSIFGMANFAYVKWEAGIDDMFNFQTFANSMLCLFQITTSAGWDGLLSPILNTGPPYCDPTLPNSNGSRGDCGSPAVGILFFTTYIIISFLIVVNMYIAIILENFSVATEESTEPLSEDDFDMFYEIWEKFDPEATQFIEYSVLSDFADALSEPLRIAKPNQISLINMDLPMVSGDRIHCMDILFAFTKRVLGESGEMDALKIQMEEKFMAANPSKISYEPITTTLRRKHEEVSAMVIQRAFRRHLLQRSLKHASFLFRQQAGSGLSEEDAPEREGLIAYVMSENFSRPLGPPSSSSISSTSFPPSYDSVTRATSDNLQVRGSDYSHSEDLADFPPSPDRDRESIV

As a reminder, the IC50 is the concentration at which inhibition is half-maximal. As to `CC[C@H](C)[C@H](NC(=O)[C@@H](NC(=O)[C@H](CCCCN)NC(=O)[C@H](CCCNC(=N)N)NC(=O)[C@@H]1CSSC[C@@H]2NC(=O)[C@H](CCC(=O)O)NC(=O)[C@H](CCCNC(=N)N)NC(=O)[C@H](CCCCN)NC(=O)[C@H](CO)NC(=O)[C@H](CC(=O)O)NC(=O)[C@@H]3CSSC[C@H](NC(=O)[C@H](CCCNC(=N)N)NC(=O)[C@H](CC(C)C)NC(=O)CNC(=O)[C@H](CCC(=O)O)NC(=O)[C@H](CSSC[C@H](NC(=O)[C@@H](N)Cc4ccc(O)cc4)C(=O)N[C@@H](CCC(N)=O)C(=O)N[C@@H](CCCCN)C(=O)N[C@@H](Cc4c[nH]c5ccccc45)C(=O)N[C@@H](CCSC)C(=O)N[C@@H](Cc4c[nH]c5ccccc45)C(=O)N[C@@H]([C@@H](C)O)C(=O)N3)NC2=O)C(=O)N[C@@H](CCCCN)C(=O)N[C@@H](CC(C)C)C(=O)N[C@@H](Cc2c[nH]c3ccccc23)C(=O)N1)[C@@H](C)CC)C(N)=O` [A14 Glu mutant], for the setting “human, read-out: Glu mutant IWQ IC50 NaV1.5”, the IC50 was greater than 5 µM.
Take `CC[C@H](C)[C@H](NC(=O)[C@@H](NC(=O)[C@H](CCCCN)NC(=O)[C@H](CCCNC(=N)N)NC(=O)[C@@H]1CSSC[C@@H]2NC(=O)[C@H](C)NC(=O)[C@H](CCCNC(=N)N)NC(=O)[C@H](CCCCN)NC(=O)[C@H](CO)NC(=O)[C@H](CC(=O)O)NC(=O)[C@@H]3CSSC[C@H](NC(=O)[C@H](CCCNC(=N)N)NC(=O)[C@H](CC(C)C)NC(=O)CNC(=O)[C@H](C)NC(=O)[C@H](CSSC[C@H](NC(=O)[C@@H](N)Cc4ccc(O)cc4)C(=O)N[C@@H](CCC(N)=O)C(=O)N[C@@H](CCCCN)C(=O)N[C@@H](Cc4c[nH]c5ccccc45)C(=O)N[C@@H](CCSC)C(=O)N[C@@H](Cc4c[nH]c5ccccc45)C(=O)N[C@@H]([C@@H](C)O)C(=O)N3)NC2=O)C(=O)N[C@@H](CCCCN)C(=O)N[C@@H](CC(C)C)C(=O)N[C@@H](Cc2c[nH]c3ccccc23)C(=O)N1)[C@@H](C)CC)C(N)=O` [E17 Ala mutant]: the IC50 (read-out: Ala mutant IWQ IC50 NaV1.5) is greater than 5 µM.
Consider `CC[C@H](C)[C@H](NC(=O)[C@H](C)NC(=O)[C@H](CCCCN)NC(=O)[C@H](CCCNC(=N)N)NC(=O)[C@@H]1CSSC[C@@H]2NC(=O)[C@H](C)NC(=O)[C@H](CCCNC(=N)N)NC(=O)[C@H](CCCCN)NC(=O)[C@H](CO)NC(=O)[C@H](CC(=O)O)NC(=O)[C@@H]3CSSC[C@H](NC(=O)[C@H](CCCNC(=N)N)NC(=O)[C@H](CC(C)C)NC(=O)CNC(=O)[C@H](CCC(=O)O)NC(=O)[C@H](CSSC[C@H](NC(=O)[C@@H](N)Cc4ccc(O)cc4)C(=O)N[C@@H](CCC(N)=O)C(=O)N[C@@H](CCCCN)C(=O)N[C@@H](Cc4c[nH]c5ccccc45)C(=O)N[C@@H](CCSC)C(=O)N[C@@H](Cc4c[nH]c5ccccc45)C(=O)N[C@@H]([C@@H](C)O)C(=O)N3)NC2=O)C(=O)N[C@@H](CCCCN)C(=O)N[C@@H](CC(C)C)C(=O)N[C@@H](Cc2c[nH]c3ccccc23)C(=O)N1)C(N)=O` [I28 Ala mutant], for which the IC50 under setting [1] was greater than 5 µM.
On the same count and under the same terms, next, `CC[C@H](C)[C@H](NC(=O)[C@H](CCCCN)NC(=O)[C@H](CCCNC(=N)N)NC(=O)[C@@H]1CSSC[C@@H]2NC(=O)[C@H](C)NC(=O)[C@H](CCCNC(=N)N)NC(=O)[C@H](CCCCN)NC(=O)[C@H](CO)NC(=O)[C@H](CC(=O)O)NC(=O)[C@@H]3CSSC[C@H](NC(=O)[C@H](CCCNC(=N)N)NC(=O)[C@H](CC(C)C)NC(=O)CNC(=O)[C@H](CCC(=O)O)NC(=O)[C@H](CSSC[C@H](NC(=O)[C@@H](N)Cc4ccc(O)cc4)C(=O)N[C@@H](CCC(N)=O)C(=O)N[C@@H](CCCCN)C(=O)N[C@@H](Cc4c[nH]c5ccccc45)C(=O)N[C@@H](CCSC)C(=O)N[C@@H](Cc4c[nH]c5ccccc45)C(=O)N[C@@H]([C@@H](C)O)C(=O)N3)NC2=O)C(=O)N[C@@H](CCCCN)C(=O)N[C@@H](CC(C)C)C(=O)N[C@@H](Cc2c[nH]c3ccccc23)C(=O)N1)C(=O)N[C@@H](C)C(N)=O` [I29 Ala mutant]: greater than 5 µM.

The values are drawn from paper PMC5933747 (PLoS ONE, 2018).
